Reference: US20240150293A1, “SPIROCYCLOHEXANE DERIVATIVES, PHARMACEUTICAL COMPOSITIONS CONTAINING THEM AND THEIR USES AS ANTI-APOPTOTIC INHIBITORS” (LES LABORATOIRES SERVIER, priority 2021, published 2024)
Read-outs that look alike come from different tables or passages of the source.

Assays:
[1] = tested on: H929 multiple myeloma tumor line; experiment: In vitro cytotoxicity, MTT assay (Example B, Method A); type: cell-based; conditions: H929 cells, 48 hours exposure, read-out: C50
Protocol: The cytotoxicity studies were carried out on the H929 multiple myeloma tumor line.
The cells are distributed onto microplates and exposed to the test compounds for 48 hours. The cell viability is then quantified by a colorimetric assay, the Microculture Tetrazolium Assay (Carmichael et al, Cancer Res. 1987, 47, 939-942).
The results are expressed in C50 which means concentration corresponding to […] of effect/inhibition.

Mcl-1 protein = Mcl-1 protein (UniProtKB Q07820) (Homo sapiens (Human), UniProt Q07820); experiment: Inhibition of Mcl-1 by the fluorescence polarisation assay (Example A, Method A); type: binding; conditions: fluorescence polarization assay
Chain of Mcl-1 protein (Q07820 whole entry): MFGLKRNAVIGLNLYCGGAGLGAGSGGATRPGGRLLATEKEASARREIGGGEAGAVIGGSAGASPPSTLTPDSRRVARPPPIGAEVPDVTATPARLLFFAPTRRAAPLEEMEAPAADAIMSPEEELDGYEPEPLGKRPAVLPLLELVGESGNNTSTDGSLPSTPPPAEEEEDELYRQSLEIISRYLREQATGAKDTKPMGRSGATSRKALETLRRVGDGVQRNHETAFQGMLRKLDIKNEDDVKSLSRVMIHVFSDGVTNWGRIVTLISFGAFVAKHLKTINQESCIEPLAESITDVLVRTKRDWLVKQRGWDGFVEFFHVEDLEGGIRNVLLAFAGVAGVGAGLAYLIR
Procedure, shortened: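 Protein (5 nM) and fluorescein-tagged peptide tracer (1 nM) incubated with 11-point compound series for 2 h at room temperature in HEPES/NaCl/Tween 20 buffer, pH 7.4, 5% DMSO. Displacement read as decrease in polarisation; IC50 fitted by 4-parameter logistic, converted to Ki (cKi or eKi).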

Row | SMILES | IC50 ([1]; Homo sapiens, NCI-H929, 48 h) | Ki (Mcl-1 protein) | IC50 [1]
1 | C[C@@H](COc1ccnc2occc12)C[C@H]1Cc2ccccc2[C@]12CC[C@@](Nc1cccc(Cl)c1)(C(=O)O)CC2 [Example 606, (1r,2′S,4S)-4-(3-chloroanilino)-2′-{(2R)-3-[(furo[2,3-b]pyridin-4-yl)oxy]-2-methylpropyl}-2′,3′-dihydrospiro[cyclohexane-1,1′-indene]-4-carboxylic acid] | 2140 nM | 77.3 nM | 
2 | O=C(O)[C@]1(Nc2cccc(Cl)c2)CC[C@@]2(CC1)c1ccccc1CC2CCCOc1ccnc2[nH]ccc12 (stereo partly drawn) [Example 445, (1r,4r)-4-(3-chloroanilino)-2′-{3-[(1H-pyrrolo[2,3-b]pyridin-4-yl)oxy]propyl}-2′,3′-dihydrospiro[cyclohexane-1,1′-indene]-4-carboxylic acid] | 5350 nM | 75.3 nM | 
3 | O=C(O)[C@]1(Nc2cccc(Cl)c2)CC[C@@]2(CC1)c1ccccc1CC2CCCOc1ccnc2c1CCCC2 (stereo partly drawn) [Example 451, (1r,4r)-4-(3-chloroanilino)-2′-{3-[(5,6,7,8-tetrahydroquinolin-4-yl)oxy]propyl}-2′,3′-dihydrospiro[cyclohexane-1,1′-indene]-4-carboxylic acid] | 3490 nM | 49.7 nM | 
4 | C[C@@H](COc1ccnc2sccc12)C[C@H]1Cc2ccccc2[C@]12CC[C@@](Nc1cccc(Cl)c1)(C(=O)O)CC2 [Example 604, (1r,2′S,4S)-4-(3-chloroanilino)-2′-{(2R)-2-methyl-3-[(thieno[2,3-b]pyridin-4-yl)oxy]propyl}-2′,3′-dihydrospiro[cyclohexane-1,1′-indene]-4-carboxylic acid] | 694 nM | 30 nM | 
5 | C[C@@H](COc1ccnc2c1CCC[C@@H]2O)C[C@H]1Cc2ccccc2[C@]12CC[C@@](Nc1cccc(Cl)c1)(C(=O)O)CC2 [Example 669, (1r,2′S,4S)-4-(3-chloroanilino)-2′-[(2R)-3-{[(8S)-8-hydroxy-5,6,7,8-tetrahydroquinolin-4-yl]oxy}-2-methylpropyl]-2′,3′-dihydrospiro[cyclohexane-1,1′-indene]-4-carboxylic acid] | 1520 nM | 32.3 nM | 
6 | CC1CCc2nccc(OC[C@H](C)CC3Cc4ccccc4[C@]34CC[C@@](Nc3cccc(Cl)c3)(C(=O)O)CC4)c21 (mixture of isomers) [Example 602, (1r,4R)-4-(3-chloroanilino)-2′-{(2R)-2-methyl-3-[(5-methyl-6,7-dihydro-5H-cyclopenta[b]pyridin-4-yl)oxy]propyl}-2′,3′-dihydrospiro[cyclohexane-1,1′-indene]-4-carboxylic acid] | 518 nM | 3.37 nM | 
7 | O=C(O)[C@]1(Nc2cccc(Cl)c2)CC[C@@]2(CC1)c1ccccc1CC2CCCOc1ccncc1 (stereo partly drawn) [Example 426, (1r,4r)-4-(3-chloroanilino)-2′-{3-[(pyridin-4-yl)oxy]propyl}-2′,3′-dihydrospiro[cyclohexane-1,1′-indene]-4-carboxylic acid] | 16500 nM | 55.3 nM | 
8 | COc1ccc2c(c1)[C@]1(CC[C@@](Nc3cccc(Cl)c3)(C(=O)O)CC1)C(c1cccc(Oc3ccccc3)c1)C2 (single isomer, unassigned) [Example 378, (1r,4r)-4-(3-chloroanilino)-6′-methoxy-2′-(3-phenoxyphenyl)-2′,3′-dihydrospiro[cyclohexane-1,1′-indene]-4-carboxylic acid] | 9240 nM | 63.2 nM | 
9 | C[C@@H]1Cc2ccccc2[C@]12CC[C@@](Nc1cccc(Br)c1)(C(=O)O)CC2 [Example 144, (1r,2′R,4R)-4-(3-bromoanilino)-2′-methyl-2′,3′-dihydrospiro[cyclohexane-1,1′-indene]-4-carboxylic acid] | 30000 nM | 182 nM | 
10 | CC1CCc2nccc(OC[C@H](C)CC3Cc4ccccc4[C@]34CC[C@@](Nc3cccc(Cl)c3)(C(=O)O)CC4)c21 (single isomer, unassigned) [Example 600] | 512 nM | 4.26 nM | 
11 | O=C(O)[C@]1(Nc2cccc(Cl)c2)CC[C@@]2(CC1)c1ccccc1C[C@@H]2C[C@@H](COc1cccnc1)c1ccccc1 [Example 548, (1r,2′S,4S)-4-(3-chloroanilino)-2′-{(2R)-2-phenyl-3-[(pyridin-3-yl)oxy]propyl}-2′,3′-dihydrospiro[cyclohexane-1,1′-indene]-4-carboxylic acid] | 30000 nM | 995 nM | 
12 | O=C(O)[C@]1(Nc2cccc(Cl)c2)CC[C@@]2(CC1)c1ccccc1CC2CCCOc1ccncc1C1CC1 (stereo partly drawn) [Example 464, (1r,4r)-4-(3-chloroanilino)-2′-{3-[(3-cyclopropylpyridin-4-yl)oxy]propyl}-2′,3′-dihydrospiro[cyclohexane-1,1′-indene]-4-carboxylic acid] | 14800 nM | 49.1 nM | 
13 | O=C(O)[C@]1(Nc2cccc(Cl)c2)CC[C@@]2(CC1)c1ccccc1C[C@H]2CCCOc1ccnc2ccsc12 [Example 439, (1r,2′R,4R)-4-(3-chloroanilino)-2′-{3-[(thieno[3,2-b]pyridin-7-yl)oxy]propyl}-2′,3′-dihydrospiro[cyclohexane-1,1′-indene]-4-carboxylic acid] | 3880 nM | 68.6 nM | 
14 | O=C(O)[C@]1(Nc2cccc(Cl)c2)CC[C@@]2(CC1)c1ccccc1C[C@H]2c1cccc(OCc2ccccc2)c1 [Example 332, (1r,2′S,4S)-2′-[3-(benzyloxy)phenyl]-4-(3-chloroanilino)-2′,3′-dihydrospiro[cyclohexane-1,1′-indene]-4-carboxylic acid] | 16400 nM | 475 nM | 
15 | O=C(O)[C@]1(Nc2cccc(Cl)c2)CC[C@@]2(CC1)c1ccccc1CN2CCCOc1ccccc1 [Example 35, (1s,4s)-4-(3-chloroanilino)-2′-(3-phenoxypropyl)-2′,3′-dihydrospiro[cyclohexane-1,1′-isoindole]-4-carboxylic acid] | 30000 nM | 332 nM | 
16 | O=C(O)[C@]1(Nc2cccc(Cl)c2)CC[C@@]2(CC1)c1ccccc1C[C@H]2c1cccc(Oc2ccccc2)c1 [Example 323, (1r,2′S,4S)-4-(3-chloroanilino)-2′-(3-phenoxyphenyl)-2′,3′-dihydrospiro[cyclohexane-1,1′-indene]-4-carboxylic acid] | 10500 nM | 106 nM | 
17 | C[C@@H](COc1ccnc2c1CCCCC2O)C[C@H]1Cc2ccccc2[C@]12CC[C@@](Nc1cccc(Cl)c1)(C(=O)O)CC2 (stereo partly drawn) [Example 634, (1r,2′S,4S)-4-(3-chloroanilino)-2′-{(2R)-3-[(9-hydroxy-6,7,8,9-tetrahydro-5H-cyclohepta[b]pyridin-4-yl)oxy]-2-methylpropyl}-2′,3′-dihydrospiro[cyclohexane-1,1′-indene]-4-carboxylic acid] | 4230 nM | 86.8 nM | 
18 | O=C(O)[C@]1(Nc2cccc(Cl)c2)CC[C@@]2(CC1)c1ccccc1C[C@H]2C[C@H](COc1cccnc1)c1ccccc1 [Example 550, (1r,2′R,4R)-4-(3-chloroanilino)-2′-{(2S)-2-phenyl-3-[(pyridin-3-yl)oxy]propyl}-2′,3′-dihydrospiro[cyclohexane-1,1′-indene]-4-carboxylic acid] | 30000 nM | 5280 nM | 
19 | CC(C)C(COc1ccncc1)CC1Cc2ccccc2[C@]12CC[C@@](Nc1cccc(Cl)c1)(C(=O)O)CC2 (single isomer, unassigned) [Example 532, (1r,4r)-4-(3-chloroanilino)-2′-(3-methyl-2-{[(pyridin-4-yl)oxy]methyl}butyl)-2′,3′-dihydrospiro[cyclohexane-1,1′-indene]-4-carboxylic acid] |  | 809 nM | 12600 nM
20 | O=C(O)[C@]1(Nc2cccc(Cl)c2)CC[C@@]2(CC1)c1ccccc1C[C@@H]2C[C@@H](COc1ccncc1)c1ccccc1 [Example 552, (1r,2′S,4S)-4-(3-chloroanilino)-2′-{(2R)-2-phenyl-3-[(pyridin-4-yl)oxy]propyl}-2′,3′-dihydrospiro[cyclohexane-1,1′-indene]-4-carboxylic acid] | 3380 nM | 110 nM | 
21 | C[C@@H](COc1cccnc1)C[C@H]1Cc2ccccc2[C@]12CC[C@@](Nc1cccc(Cl)c1)(C(=O)O)CC2 [Example 568, (1r,2′S,4S)-4-(3-chloroanilino)-2′-{(2R)-2-methyl-3-[(pyridin-3-yl)oxy]propyl}-2′,3′-dihydrospiro[cyclohexane-1,1′-indene]-4-carboxylic acid] | 18300 nM | 438 nM | 
22 | CC1CCc2nccc(OC[C@H](C)C[C@H]3Cc4ccccc4[C@]34CC[C@@](Nc3cccc(Cl)c3)(C(=O)O)CC4)c2C1 (stereo partly drawn) [Example 651, (1r,2′S,4S)-4-(3-chloroanilino)-2′-{(2R)-2-methyl-3-[(6-methyl-5,6,7,8-tetrahydroquinolin-4-yl)oxy]propyl}-2′,3′-dihydrospiro[cyclohexane-1,1′-indene]-4-carboxylic acid] | 1260 nM | 17.9 nM | 
23 | O=C(O)[C@]1(Nc2cccc(Cl)c2)CC[C@]2(CC1)C(CCCOc1ccnc3ccsc13)=Cc1ccccc12 [Example 442, (1r,4r)-4-(3-chloroanilino)-2′-{3-[(thieno[3,2-b]pyridin-7-yl)oxy]propyl}spiro[cyclohexane-1,1′-indene]-4-carboxylic acid] | 5790 nM | 107 nM | 
24 | Cc1c[nH]c2cccc(OCCC[C@@H]3Cc4ccccc4[C@]34CC[C@@](Nc3cccc(Cl)c3)(C(=O)O)CC4)c12 [Example 483, (1r,2′R,4R)-4-(3-chloroanilino)-2′-{3-[(3-methyl-1H-indol-4-yl)oxy]propyl}-2′,3′-dihydrospiro[cyclohexane-1,1′-indene]-4-carboxylic acid] | 4170 nM | 174 nM | 
